Data reported in US4264774A, “2-Thiophenesulfonyl bromides” (The Dow Chemical Company, priority 1976, dated 1981).
≈ marks a conversion by molar mass, not a printed value.

Columns and labels:
Type in all cases: cell-based
R. nigricans = experiment: in vitro agar Petri dish dilution test, Rn; details: Rhizopus stolonifer, 100% inhibition
Excerpt: (§1) The compounds of this invention have antimicrobial utility. In conventional in vitro agar Petri dish dilution tests, the following compounds and some corresponding art compounds gave 100% inhibition of the following organisms at the indicated concentrations in parts per million.

A. niger = experiment: in vitro agar Petri dish dilution test, An; details: Aspergillus niger, 100% inhibition
Excerpt: as §1

[1] = tested on: Pseudomonas Sp. Strain 10; experiment: in vitro agar Petri dish dilution test, Ps 10; details: 100% inhibition
Excerpt: as §1
Ps 10 = Pseudomonas Sp. Strain 10

B. subtilis [2] = experiment: in vitro agar Petri dish dilution test, Bs; details: Bacillus subtilis, 100% inhibition
Excerpt: as §1

T. Sp. Madison P42 = experiment: in vitro agar Petri dish dilution test, Tr 42; details: 100% inhibition
Excerpt: as §1
Tr 42 = T. Sp. Madison P42

S. aureus [3] = experiment: in vitro agar Petri dish dilution test, Sa; details: Staphylococcus aureus, 100% inhibition
Excerpt: as §1

E. coli = experiment: in vitro agar Petri dish dilution test, Ec; details: Escherichia coli, 100% inhibition
Excerpt: as §1

A. aerogenes = experiment: in vitro agar Petri dish dilution test, Aa; details: Klebsiella aerogenes, 100% inhibition
Excerpt: as §1

T. mentagrophytes = experiment: in vitro agar Petri dish dilution test, Tm; details: Trichophyton mentagrophytes, 100% inhibition
Excerpt: as §1
Tm = T. mentagrophytes -

P. pullulans = experiment: in vitro agar Petri dish dilution test, Pp; details: 100% inhibition
Excerpt: as §1

C. albicans = experiment: in vitro agar Petri dish dilution test, Ca; details: Candida albicans, 100% inhibition
Excerpt: as §1

C. pelliculosa [4] = experiment: in vitro agar Petri dish dilution test, Cp; details: Hansenula anomala, 100% inhibition
Excerpt: as §1

S. typhosa = experiment: in vitro agar Petri dish dilution test, St; details: for MIC: 100% inhibition
Excerpt: as §1

M. phlei = experiment: in vitro agar Petri dish dilution test, Mp; details: Mycolicibacterium phlei, 100% inhibition
Excerpt: as §1

C. IPS = experiment: in vitro agar Petri dish dilution test, CI; details: 100% inhibition
Excerpt: as §1

C. pelliculosa [5] = experiment: in vitro agar Petri dish dilution test, Cp; details: Hansenula anomala
B. subtilis [6] = experiment: in vitro agar Petri dish dilution test, Bs; details: Bacillus subtilis
S. aureus [7] = experiment: in vitro agar Petri dish dilution test, Sa; details: Staphylococcus aureus

Row | Compound | MIC (R. nigricans) [µg/mL] | MIC (A. niger) [µg/mL] | MIC [1] [µg/mL] | MIC (B. subtilis [2]) [µg/mL] | MIC (T. Sp. Madison P42) [µg/mL] | MIC (S. aureus [3]) [µg/mL] | MIC (E. coli) [µg/mL] | MIC (A. aerogenes) [µg/mL] | MIC (T. mentagrophytes) [µg/mL] | MIC (P. pullulans) [µg/mL] | MIC (C. albicans) [µg/mL] | MIC (C. pelliculosa [4]) [µg/mL] | MIC (S. typhosa) [µg/mL] | MIC (M. phlei) [µg/mL] | MIC (C. IPS) [µg/mL] | inhibition at 500 ppm (S. typhosa) [%] | inhibition at 500 ppm (C. pelliculosa [5]) [%] | inhibition at 500 ppm (B. subtilis [6]) [%] | inhibition at 500 ppm (S. aureus [7]) [%]
1 | CCCCc1ccc(S(=O)(=O)Br)s1 [5-butyl] | 100 (≈ 353 µM) | 100 (≈ 353 µM) | 500 (≈ 1770 µM) | 100 (≈ 353 µM) | 100 (≈ 353 µM) | 500 (≈ 1770 µM) | 500 (≈ 1770 µM) | 500 (≈ 1770 µM) | 100 (≈ 353 µM) | 100 (≈ 353 µM) | 500 (≈ 1770 µM) | 100 (≈ 353 µM) | – | – | – | – | – | – | –
2 | O=S(=O)(Br)c1sc(Br)cc1Br [3,5-Br2] | – | – | 50 (≈ 130 µM) | 50 (≈ 130 µM) | 100 (≈ 260 µM) | 50 (≈ 130 µM) | – | 50 (≈ 130 µM) | 50 (≈ 130 µM) | 100 (≈ 260 µM) | 100 (≈ 260 µM) | 50 (≈ 130 µM) | 50 (≈ 130 µM) | – | – | – | – | – | –
3 | O=S(=O)(Br)c1ccc(Br)s1 [5-Br, 5-Bromo-2-thiophenesulfonyl Bromide] | 100 | 100 | 100 | 100 | 100 | 500 | 500 | 500 | 100 | 100 | 100 | 100 | – | 500 | – | – | – | – | –
4 | O=S(=O)(Br)c1cccs1 [H, 2-Thiophenesulfonyl Bromide] | 100 | 100 | 100 | 100 | 100 | 500 | 100 | 100 | 100 | 100 | 100 | 100 | – | 100 | – | – | – | – | –
5 | O=S(=O)(Cl)c1cccs1 [H, 2-thiophenesulfonyl chloride, reference compound] | > 500 | > 500 | > 500 | > 500 | > 500 | > 500 | > 500 | > 500 | > 500 | > 500 | > 500 | > 500 | > 500 | 500 | > 500 | – | – | – | –
6 | O=S(=O)(Cl)c1cc(Br)c(Br)s1 [4,5-Br2, reference compound] | – | > 100 | – | > 100 | – | > 100 | – | > 100 | 100 (≈ 294 µM) | – | > 100 | 100 (≈ 294 µM) | – | – | – | – | – | – | –
7 | Cc1ccc(S(=O)(=O)Br)s1 [5-CH3] | – | > 100 | 50 (≈ 207 µM) | > 100 | > 100 | 100 (≈ 415 µM) | – | > 100 | > 100 | > 100 | > 100 | > 100 | 50 (≈ 207 µM) | – | > 100 | – | – | – | –
8 | O=S(=O)(Br)c1sc(Br)c(Br)c1Br [3,4,5-Br3] | – | 50 (≈ 108 µM) | 50 (≈ 108 µM) | 50 (≈ 108 µM) | 50 (≈ 108 µM) | 50 (≈ 108 µM) | – | > 100 | 50 (≈ 108 µM) | 50 (≈ 108 µM) | 100 (≈ 216 µM) | 50 (≈ 108 µM) | – | – | – | – | – | – | –
9 | O=S(=O)(Cl)c1sc(Br)cc1Br [3,5-Br2, reference compound] | – | > 100 | > 100 | > 100 | > 100 | > 100 | – | > 100 | > 100 | > 100 | > 100 | > 100 | > 100 | – | > 100 | – | – | – | –
10 | O=S(=O)(Br)c1cc(Br)c(Br)s1 [4,5-Br2] | – | 100 (≈ 260 µM) | 50 (≈ 130 µM) | 50 (≈ 130 µM) | 100 (≈ 260 µM) | 50 (≈ 130 µM) | – | 100 (≈ 260 µM) | 100 (≈ 260 µM) | 100 (≈ 260 µM) | 100 (≈ 260 µM) | 100 (≈ 260 µM) | 50 (≈ 130 µM) | – | – | – | – | – | –
11 | O=S(=O)(Cl)c1sc(Br)c(Br)c1Br [3,4,5-Br3, reference compound] | – | > 100 | – | > 100 | – | > 100 | – | > 100 | > 100 | – | > 100 | > 100 | – | – | – | – | – | – | –
12 | CCc1ccc(S(=O)(=O)Cl)s1 [5-C2 H5] | – | – | – | – | – | – | – | – | – | – | – | – | – | – | – | 50 | – | – | –
13 | CCCCc1ccc(S(=O)(=O)Cl)s1 [5-butyl, reference compound] | – | > 500 | – | – | – | – | > 500 | > 500 | 500 (≈ 2090 µM) | > 500 | > 500 | – | > 500 | – | – | – | 50 | 50 | 50
14 | O=S(=O)(Br)c1ccc(Cl)s1 [5-Cl, 5-Chloro-2-thiophenesulfonyl Bromide] | 100 | 100 | 500 | 500 | 100 | 500 | 100 | 500 | 100 | 100 | 100 | 100 | – | 500 | – | – | – | – | –
15 | CCc1ccc(S(=O)(=O)Br)s1 [5-C2 H5] | 100 (≈ 392 µM) | 100 (≈ 392 µM) | 100 (≈ 392 µM) | 100 (≈ 392 µM) | 100 (≈ 392 µM) | 500 (≈ 1960 µM) | 500 (≈ 1960 µM) | 500 (≈ 1960 µM) | 100 (≈ 392 µM) | 100 (≈ 392 µM) | 500 (≈ 1960 µM) | 100 (≈ 392 µM) | – | – | – | – | – | – | –
16 | Cc1ccc(S(=O)(=O)Cl)s1 [5-CH3] | – | – | – | – | – | – | – | – | – | – | – | – | – | – | – | 50 | – | – | –
